Data from patent EP3378852A1, “AMORPHOUS FORM OF APREMILAST, PREPARATION METHOD THEREFOR, AND APPLICATION THEREOF” (Changzhou Ainuoxinrui Pharmaceuticals, Ltd., priority 2015, dated 2017).
Values after ≈ are worked out from the molar mass of the structure shown.

Legend:
Assay type in all cases: physicochemical
[1] = Determination of apparent solubility (shake flask, 37 °C, 12 h, HPLC external standard); conditions: for Apparent solubility / solubility at 12 h: 37 °C ± 0.5 °C, 12h; for solubility at 12 h: thermodynamic from solid
Method: Example 11: Determination of Apparent solubility
The apparent solubility of the amorphous form of Apremilast in the present invention and the Apremilast crystal form is compared.
The test objects were as follows: the amorphous form of Apremilast obtained in Example 1 of the present invention; the crystal Form B of Apremilast was prepared according to the patent CN102702070 Example 12. […]
Preparation of diluents of different pH: • (1) pH=1.0 diluent: Add 9 mL of concentrated HCl to a 1000 mL of volumetric flask, diluted to the volume with water. • (2) pH=2.0 diluent: Solution A: Transfer 16.6 mL of phosphoric acid to a 100 mL volumetric flask, dilute to the volume with water, shake to mix. Solution B: Weigh and transfer 71.63g of […] phosphate to a 1000 mL of volumetric flask, dilute to the volume with water, dissolve and mix well. […]
Example 51: Determination of Apparent solubility
The test objects were as follows: the solid dispersion of amorphous Apremilast obtained in Example 23 of the present invention; the physical mixture comprising Apremilast crystalline (Apremilast crystal Form B, sorbitol and polyacrylic resin Eudragit L100 were mixed physically, and the weight ratio is 1:1:1, and the crystal Form B of Apremilast was prepared according to the patent CN102702070 Example 12.).

[2] = Impact factor test (high temperature / high humidity stress stability; related substances by HPLC, crystallinity by XRPD)
Method: Example 9: Impact factor test of the amorphous Apremilast
Material: Amorphous Apremilast was prepared according to the method of Example 1
(§1) Experiment conditions: temperature 40 °C ± 2 °C, humidity 75% ± 5%
The substance was detected by HPLC.
Example 46: Impact factor test of the solid dispersion of amorphous Apremilast and hydroxypropylcellulose SSL and povidone K30
Material: the solid dispersion of amorphous Apremilast and hydroxypropylcellulose SSL and povidone K30 was prepared according to the method of Example 12
Experiment conditions: temperature 40 °C ± 2 °C, humidity 75% ± 5% The substance was detected by HPLC.
Example 49: Impact factor test of the solid dispersion of amorphous Apremilast, sorbitol and polyacrylic resin Eudragit L100 […]

[3] = Accelerated stability test (related substances by HPLC, crystallinity by XRPD); conditions: for Related substances (Total impurities %) / crystalline (XRPD): Temperature: 40°C±2°C, Humidity: 75%±5%
Method: Example 10: Accelerated stability test of the amorphous Apremilast
Material: amorphous Apremilsat was prepared according to the method of Example 1.
as §1
The substance was detected by HPLC. […]

[4] = Temperature 40 °C ± 2 °C, 0 day
[5] = Temperature 40 °C ± 2 °C, 5 days
[6] = Temperature 40 °C ± 2 °C, 10 days
[7] = Temperature 60 °C ± 2 °C, 0 day
[8] = Temperature 60 °C ± 2 °C, 5 days
[9] = Temperature 60 °C ± 2 °C, 10 days
[10] = conditions of high temperature, high humidity after 10 days
[11] = accelerated test conditions after 6 months

For `CCOc1cc([C@@H](CS(C)(=O)=O)N2C(=O)c3cccc(NC(C)=O)c3C2=O)ccc1OC` [The crystal Form B of Apremilast, N-[2-[(1S)-1-(3-ethoxy-4-Methoxyphenyl)-2-(Methylsulfonyl)ethyl]-2,3-dihydro-1,3-dioxo-1H-isoindol-4-yl]-Acetamide, reference compound], the Apparent solubility ([1]; pH value of Dilution 2.0) was 7.86 µg/mL, the Apparent solubility ([1]; pH value of Dilution 3.0) was 48.12 µg/mL and the Apparent solubility ([1]; pH value of Dilution 4.5) was 24.18 µg/mL. It also gave an Apparent solubility ([1]; pH value of Dilution 5.0) of 9.99 µg/mL, an Apparent solubility ([1]; pH value of Dilution 5.6) of 16.71 µg/mL and an Apparent solubility ([1]; pH value of Dilution 6.8) of 12.53 µg/mL. For the same molecule, the Apparent solubility ([1]; pH value of Dilution 7.4) was 10.71 µg/mL.

For `CCOc1cc([C@@H](CS(C)(=O)=O)N2C(=O)c3cccc(NC(C)=O)c3C2=O)ccc1OC` [amorphous Apremilast, N-[2-[(1S)-1-(3-ethoxy-4-Methoxyphenyl)-2-(Methylsulfonyl)ethyl]-2,3-dihydro-1,3-dioxo-1H-isoindol-4-yl]-Acetamide], the “Related substances (Total impurities %)” value ([2]; Humidity 75%±5%, 0 day) was 0.08%, the “crystalline (XRPD)” value ([2]; Humidity 75%±5%, 0 day) was “There is no peak of crystalline Apremilast” and the “Related substances (Total impurities %)” value ([2]; Humidity 75%±5%, 5 days) was 0.08%. For the same molecule, the “crystalline (XRPD)” value ([2]; Humidity 75%±5%, 5 days) was “There is no peak of crystalline Apremilast”, the “Related substances (Total impurities %)” value ([2]; Humidity 75%±5%, 10 days) was 0.09% and the “crystalline (XRPD)” value ([2]; Humidity 75%±5%, 10 days) was “There is no peak of crystalline Apremilast”. For the same molecule, the “Related substances (Total impurities %)” value ([2]; Humidity 90%±5%, 0 day) was 0.08%, the “crystalline (XRPD)” value ([2]; Humidity 90%±5%, 0 day) was “There is no peak of crystalline Apremilast” and the “Related substances (Total impurities %)” value ([2]; Humidity 90%±5%, 5 days) was 0.09%. For the same molecule, the “crystalline (XRPD)” value ([2]; Humidity 90%±5%, 5 days) was “There is no peak of crystalline Apremilast”, the “Related substances (Total impurities %)” value ([2]; Humidity 90%±5%, 10 days) was 0.11% and the “crystalline (XRPD)” value ([2]; Humidity 90%±5%, 10 days) was “There is no peak of crystalline Apremilast”. The “Related substances (Total impurities %)” value [2, 4] was 0.08%, the “crystalline (XRPD)” value [2, 4] was “There is no peak of crystalline Apremilast” and the “Related substances (Total impurities %)” value [2, 5] was 0.10%. The “crystalline (XRPD)” value [2, 5] was “There is no peak of crystalline Apremilast”, the “Related substances (Total impurities %)” value [2, 6] was 0.12% and the “crystalline (XRPD)” value [2, 6] was “There is no peak of crystalline Apremilast”. For the same molecule, the “Related substances (Total impurities %)” value [2, 7] was 0.08%, the “crystalline (XRPD)” value [2, 7] was “There is no peak of crystalline Apremilast” and the “Related substances (Total impurities %)” value [2, 8] was 0.12%. The “crystalline (XRPD)” value [2, 8] was “There is no peak of crystalline Apremilast”, the “Related substances (Total impurities %)” value [2, 9] was 0.14% and the “crystalline (XRPD)” value [2, 9] was “There is no peak of crystalline Apremilast”. The “changes in the related substances” value [2, 10] was “no significant changes”, the “crystallization of Apremilast” value [2, 10] was “no crystallization of Apremilast was observed” and the “Related substances (Total impurities %)” value ([3]; 0 month) was 0.08%. For the same molecule, the “crystalline (XRPD)” value ([3]; 0 month) was “There is no peak of crystalline Apremilast”, the “Related substances (Total impurities %)” value ([3]; 1 month) was 0.10% and the “crystalline (XRPD)” value ([3]; 1 month) was “There is no peak of crystalline Apremilast”. For the same molecule, the “Related substances (Total impurities %)” value ([3]; 2 months) was 0.14%, the “crystalline (XRPD)” value ([3]; 2 months) was “There is no peak of crystalline Apremilast” and the “Related substances (Total impurities %)” value ([3]; 3 months) was 0.16%. For the same molecule, the “crystalline (XRPD)” value ([3]; 3 months) was “There is no peak of crystalline Apremilast”, the “Related substances (Total impurities %)” value ([3]; 6 months) was 0.18% and the “crystalline (XRPD)” value ([3]; 6 months) was “There is no peak of crystalline Apremilast”. The “changes in the related substances” value [3, 11] was “no significant changes”, the “crystallization of Apremilast” value [3, 11] was “no crystallization of Apremilast was observed” and the “apparent solubility compared with the crystal form or the physical mixture comprising crystal Form B” value ([1]; at each pH) was “significantly higher”. The apparent solubility increases ([1]; in most pH conditions) was “more than 60%”, the solubility at 12 h ([1]; pH 3.0 acetate diluent, 37 °C, pH 3, aqueous buffer, pH value of Dilution 3.0) was 66.8 µg/mL (≈ 145 µM) and the solubility at 12 h ([1]; pH 4.5 diluent, 37 °C, pH 4.5, aqueous buffer, pH value of Dilution 4.5) was 42.2 µg/mL (≈ 91.7 µM). For the same molecule, the solubility at 12 h ([1]; pH 6.8 phosphate diluent, 37 °C, pH 6.8, aqueous buffer, pH value of Dilution 6.8) was 23.2 µg/mL (≈ 50.4 µM), the solubility at 12 h ([1]; pH 7.4 phosphate diluent, 37 °C, pH 7.4, aqueous buffer, pH value of Dilution 7.4) was 18.7 µg/mL (≈ 40.6 µM) and the Apparent solubility ([1]; pH value of Dilution 2.0, listed as The amorphous form of Apremilast obtained in Example 1) was 19.32 µg/mL. The Apparent solubility ([1]; pH value of Dilution 5.0, listed as The amorphous form of Apremilast obtained in Example 1) was 22.81 µg/mL and the solubility at 12 h ([1]; phthalate buffer pH 5.6, 37 °C, pH 5.6, aqueous buffer, pH value of Dilution 5.6) was 30 µg/mL (≈ 65.2 µM).
